For data set [1], the target named is T1, Estrogen receptor (Homo sapiens) (UniProt P03372).
T1 sequence (whole entry): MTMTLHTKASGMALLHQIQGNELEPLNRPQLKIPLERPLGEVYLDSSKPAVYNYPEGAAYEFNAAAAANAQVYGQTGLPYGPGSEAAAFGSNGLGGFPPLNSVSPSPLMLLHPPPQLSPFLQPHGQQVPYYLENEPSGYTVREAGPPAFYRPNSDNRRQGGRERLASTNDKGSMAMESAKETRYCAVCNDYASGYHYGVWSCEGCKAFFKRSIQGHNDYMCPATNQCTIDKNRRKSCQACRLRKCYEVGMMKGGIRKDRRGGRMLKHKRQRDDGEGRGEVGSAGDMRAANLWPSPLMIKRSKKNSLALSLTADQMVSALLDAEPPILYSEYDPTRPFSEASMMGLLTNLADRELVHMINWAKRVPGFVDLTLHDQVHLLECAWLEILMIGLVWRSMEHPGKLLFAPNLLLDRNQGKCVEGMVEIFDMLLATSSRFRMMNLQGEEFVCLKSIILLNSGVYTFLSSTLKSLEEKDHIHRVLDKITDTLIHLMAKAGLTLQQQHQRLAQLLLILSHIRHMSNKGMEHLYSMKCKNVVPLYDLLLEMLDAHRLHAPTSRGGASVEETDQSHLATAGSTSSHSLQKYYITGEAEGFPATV
As to the kind of experiment: Binding affinity to human ERalpha assessed as relative binding affinity incubated under vibration for 1 min followed by 2 hrs incubation under dark condition by fluorescence polarization assay relative to estradiol. The settings on record: time 121.0 min. A general note: Polarisation of emitted light reports the rotation of a fluorescent probe.

Data set [2] deals with Estrogen receptor beta (Homo sapiens) (UniProt Q92731). Nature of the data set: Binding affinity to human ERbeta assessed as relative binding affinity incubated under vibration for 1 min followed by 2 hrs incubation under dark condition by fluorescence polarization assay relative to estradiol. Particulars: time 121.0 min.
The next data set is filed under the species Homo sapiens. Nature of the data set: Selectivity ratio of relative binding affinity for human ERalpha to relative binding affinity to human ERbeta.
Data set [3] relates to MCF7. As to the kind of experiment: Antiproliferative activity against ERalpha positive human MCF7 cells assessed as inhibition of cell proliferation incubated for 72 hrs by CCK8 assay. In kind it is functional, cell-based. The settings on record: MCF7, 72 h.
Data set [4] relates to T47D. Nature of the data set: Antiproliferative activity against ERalpha positive human T47D cells assessed as inhibition of cell proliferation incubated for 72 hrs by CCK8 assay. In kind it is functional, cell-based. For orientation: Tetrazolium assays rely on reduction of a dye to a coloured formazan, in cell work by metabolically active cells.
Data set [5] can be described thus: Cytotoxicity against human MCF-10A cells assessed as inhibition of cell proliferation incubated for 72 hrs by CCK8 assay. In kind it is toxicity, cell-based.
Data set [6] can be described thus: Selectivity index, ratio of IC50 for cytotoxicity against human MCF-10A cells to IC50 for antiproliferative activity against human MCF7 cells. It counts as toxicity, cell-based. The settings on record: MCF-10A cells and MCF7 cells, read-out: Ratio IC50.
Data set [7] can be described thus: Antiproliferative activity against human Tamoxifen-resistant LCC2 cells assessed as inhibition of cell proliferation incubated for 72 hrs by CCK8 assay. It counts as functional, cell-based.
The test system of data set [8] is T47D. Nature of the data set: Antiproliferative activity against human T47D cells harboring ERalpha D538G mutant assessed as inhibition of cell proliferation incubated for 72 hrs by CCK8 assay. In kind it is functional, cell-based.
Data set [9] deals with T47D. Nature of the data set: Antiproliferative activity against human T47D cells harboring ERalpha Y537S mutant assessed as inhibition of cell proliferation incubated for 72 hrs by CCK8 assay. In kind it is functional, cell-based.
Another data set has as its target Tubulin (Homo sapiens) (UniProt P68371+Q9H4B7+P0DPH7+P68366+Q13509+Q71U36+P04350+Q3ZCM7+P07437+P68363+Q9BQE3+Q6PEY2+Q13885+Q9BVA1+Q9BUF5). As to the kind of experiment: Inhibition of tubulin polymerization (unknown origin) at 30 uM incubated for 60 mins by microplate reader analysis. In kind it is protein-complex assay.
For the next data set, the system named is MDA-MB-231. As to the kind of experiment: Antiproliferative activity against ERalpha negative human MDA-MB-231 cells assessed as inhibition of cell proliferation incubated for 72 hrs by CCK8 assay. The settings on record: MDA-MB-231, 72 h. In kind it is functional, cell-based.
Data set [10] has as its system MCF7. Nature of the data set: Antitumor activity against human MCF7 cells xenografted in Balb/c nude mouse assessed as tumor growth inhibition at 2 mg/kg, ip administered every other day for 20 days relative to control. In kind it is functional. The settings on record: MCF7, 480 h, time 20 day, read-out: TGI.
Data set [11] is described as follows: Antitumor activity against human Tamoxifen-resistant LCC2 cells xenografted in Balb/c nude mouse assessed as tumor growth inhibition at 2 mg/kg, ip administered every other day for 20 days relative to control. It counts as functional. Particulars: Tamoxifen-resistant LCC2 cell, 480 h, time 20 day, read-out: TGI.
For data set [12], the target named is T1, Estrogen receptor (Homo sapiens). Nature of the data set: Induction of ERalpha degradation in human MCF7 cells at 5 uM incubated for 24 hrs by Western blot analysis. In kind it is cell-based. On the technique in general: In western blotting, separated proteins are transferred to a membrane and probed.

pIC50: −log10 of the molar value. Activity calls are given as the source filed them. The rule behind the calls is not given here. Where only a bound is given, the exact number is not on record here.

One may read the pIC50 as −log10 of the IC50, conventionally taken in molar units. The term IC50 denotes the point on the concentration scale where inhibition reaches its midpoint.

Sequence of Estrogen receptor beta (Homo sapiens) (Q92731 whole entry): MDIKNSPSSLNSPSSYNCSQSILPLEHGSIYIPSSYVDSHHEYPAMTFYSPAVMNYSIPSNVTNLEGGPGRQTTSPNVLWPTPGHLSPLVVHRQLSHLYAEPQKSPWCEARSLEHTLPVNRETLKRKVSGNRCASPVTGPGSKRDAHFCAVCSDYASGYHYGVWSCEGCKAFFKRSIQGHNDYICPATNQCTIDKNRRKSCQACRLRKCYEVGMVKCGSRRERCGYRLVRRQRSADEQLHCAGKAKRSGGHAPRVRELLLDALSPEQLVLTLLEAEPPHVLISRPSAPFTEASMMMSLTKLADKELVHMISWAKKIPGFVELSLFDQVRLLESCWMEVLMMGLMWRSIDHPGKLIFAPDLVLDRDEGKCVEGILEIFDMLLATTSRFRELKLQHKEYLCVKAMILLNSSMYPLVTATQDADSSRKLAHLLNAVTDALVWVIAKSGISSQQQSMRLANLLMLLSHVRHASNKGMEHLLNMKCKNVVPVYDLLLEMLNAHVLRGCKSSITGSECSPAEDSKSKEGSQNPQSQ

Regarding `COc1ccc(N(CC(F)(F)F)S(=O)(=O)C2CC3OC2C(c2ccc(O)cc2)=C3c2ccc(O)cc2)cc1` (stereo not drawn), the RBA in data set [1] was found to be 0.76%; in [2], 0.06%. Also, the Selectivity ratio in the data set filed under Homo sapiens is 12.7. Also, the pIC50 in the data set with MCF7 [3] is 6.64; in the data set on T47D [4], 5.16; in data set [7], 5.29; in the data set with T47D [8], 5.14; in the data set with T47D [9], 4.90. In data set [5], the IC50 at 72 h came out at 20.4 µM. Moreover, in [6], the selectivity ratio is 88.6. The “tubulin polymerization inhibition (active/not active)” value at Tubulin (Homo sapiens) is “inactive”.

For `C[C@]12CC[C@@H]3c4ccc(O)cc4C[C@@H](CCCCCCCCC[S+]([O-])CCCC(F)(F)C(F)(F)F)[C@H]3[C@@H]1CC[C@@H]2O` (stereo partly drawn) [FULVESTRANT], the pIC50 is 6.92 in the data set on MCF7 [3] and less than 4.00 with MDA-MB-231. Further, the IC50 at 72 h in data set [5] was greater than 100 µM. The inhibition in vivo at 2 mg/kg worked out at 64.1% with MCF7 [10] and 45.8% in data set [11].

As to `O=S(=O)(Oc1ccccc1)C1CC2OC1C(c1ccc(O)cc1)=C2c1ccc(O)cc1` (stereo not drawn), the pIC50 was less than 4.51 in the data set on T47D [4], 4.60 in [7] and less than 4.51 with T47D [8]. Moreover, the concentration for half-maximal inhibition (IC50) at 72 h in data set [5] is greater than 60 µM. For the same molecule, the selectivity ratio in [6] was greater than 4.11. Further, the outcome in [12] was inactive. Moreover, at Tubulin (Homo sapiens), the “tubulin polymerization inhibition (active/not active)” value is “inactive”.

In the case of `N#C[Se]CCCCCC(=O)Nc1ccccc1`, the RBA in [1] stood at 0.04%; in [2], 0.01%. The Selectivity ratio in the data set listed under Homo sapiens was determined as 7. Further, the pIC50 is 5.45 in the data set with MCF7 [3], 5.37 in the data set with T47D [4] and 6.44 in the data set with MDA-MB-231. Moreover, the IC50 at 72 h in [5] was 2.26 µM. In addition, the selectivity ratio in [6] was determined as 0.64. Further, in data set [12], the outcome was inactive. At Tubulin (Homo sapiens), the “tubulin polymerization inhibition (active/not active)” value is “Active”.

For the origin of these results see ChEMBL document CHEMBL5360672, “Identification of Novel Dual-Target Estrogen Receptor α Degraders with Tubulin Inhibitory Activity for the Treatment of Endocrine-Resistant Breast Cancer” (J Med Chem, 2023).
